System: Experimental Allergic Encephalomyelitis (EAE)
Assay: Experimental Allergic Encephalomyelitis (EAE) model of multiple sclerosis
Format: in vivo
Conditions: mice, MOG35-55-induced EAE, 30 mg/Kg twice daily for 35 days
Description: EAE was induced in two groups, each of 10 mice, by subcutaneous injection into the flank of 150 μg of the encephalitogenic peptide MOG35-55 ([…]; Auspep, Melbourne, Australia) emulsified in complete Freund's adjuvant (Difco, Detroit, U.S.A.), supplemented with 4 mg/mL of Mycobacterium tuberculosis, followed by intravenous injection of 350 ng of pertussis vaccine (List Biological Laboratories, Campbell, U.S.A.), with the pertussis vaccine injection repeated after 48 hours.
Compound 1 was dissolved in 3% aqueous Tween 80 at 4mg/mL and stored at 4° C. Starting on the day of immunization with MOG35-55, the mice were treated twice daily with 30 mg/Kg of compound 1 or an equal volume of water for the 35 day duration of the experiment.
The mice were monitored daily and neurological impairment was quantified on an arbitrary scale: 0, no detectable impairment; 1, flaccid tail; 2, hind limb weakness; 3, hind limb paralysis; 4, hind limb paralysis and ascending paralysis; 5, moribund or dead.
At the end of the experiment, the mice were killed and hematoxylin and eosin stained sections of brain and spinal cord were scored blindly by two independent investigators using the following scale: 0, no inflammation; 1, few very small cellular infiltrate in the perivascular areas and meninges; 2, mild cellular infiltrate; 3, moderate cellular infiltrate; 4, severe cellular infiltrate; 5, very large and extensive cellular infiltrate.

[1] = neurological impairment scale 0-5

Compound: Cc1nn(C)c2nc(OCCN3CCCC3)c(C(=O)NC(=O)Nc3cccc(OC(C)C)c3)cc12.Cl [Compound 1, 1-{1,3-dimethyl-6-[2-(pyrrolidin-1-yl)ethoxy]-1H-pyrazolo[3,4-b]pyridine-5-carbonyl}-3-(3-isopropoxyphenyl)urea hydrochloride]
- Mean onset: 17.2 days
- EAE incidence (affected/total): 5/10
- Mean cumulative score [1]: 7.25
- Mean maximum score [1]: 1.4

Reference: patent US6962926B2, “Antagonist of MCP-1 function, and compositions and methods of use thereof” (Telik, Inc., priority 2001, dated 2005)
